According to US6969703B2, “Inhibitors of the ICE/ced-3 family of cysteine proteases” (Idun Pharmaceuticals, Inc., priority 2000, dated 2005):
Primed or numbered codes have the meaning given here. The star is where a group is joined. aldehyde′ = C-terminal aldehyde (aspartyl aldehyde); Cbz = O=C(OCc1ccccc1)*; CH2F = FC*

Experiments:
[1] = target: T1, Csp-6 (Homo sapiens, UniProt P55212); experiment: Fluorescence enzyme assay, IC50 determination; assay type: biochemical; details: 30 minutes preincubation at room temperature, AMC substrate
T1 sequence (P55212 24-179 limits assumed): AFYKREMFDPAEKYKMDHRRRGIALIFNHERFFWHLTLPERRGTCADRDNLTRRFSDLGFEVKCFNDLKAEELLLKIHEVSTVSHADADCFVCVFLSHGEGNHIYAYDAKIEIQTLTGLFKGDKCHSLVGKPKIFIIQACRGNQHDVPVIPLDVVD
Method: (§1) Fluorescence enzyme assays detecting the activity of the compounds of Formula I utilizing the recombinant ICE and CPP32 enzymes are performed essentially according to Thornberry et al. (Nature 356:768:774 (1992)) and Nicholson et al. (Nature 376:37-43 (1995)) respectively, (herein incorporated by reference) in 96 well microtiter plates. The substrate is Acetyl-Tyr-Val-Ala-Asp-amino-4-methylcoumarin (AMC) (SEQ ID NO: 1) for the ICE assay and Acetyl-Asp-Glu-Val-Asp-amino-4-methylcoumarin (SEQ ID NO: 2) for the CPP32, Mch2, Mch3 and Mch5 assays. Enzyme reactions are run in ICE buffer (25 mM HEPES, 1 mM EDTA, 0.1% CHAPS, 10% sucrose, pH 7.5) containing 2 mM DTT at room temperature in duplicate. The assays are performed by mixing the following components: • 50 μL ICE, Mch2, Mch5, CPP32 (18.8, 38, 8.1 and 0.153 nM concentrations, respectively) or Mch3 (1 unit) enzyme in ICE buffer containing either 8.0 (ICE, Mch2, Mch3, CPP32) or 20 (Mch5) mM DTT; • 50 μL compound of Formula I or ICE buffer (control); and • 100 μL of 20 μM substrate.
(§2) The enzyme and the compound of Formula I to be assayed are allowed to preincubate in the microtitre plate wells for 30 minutes at room temperature prior to the addition of substrate to initiate the reaction. Fluorescent AMC product formation is monitored for one hour at room temperature by measuring the fluorescence emission at 460 nm using an excitation wavelength of 360 nm. The fluorescence change in duplicate (control) wells are averaged and the mean values are plotted as a function of inhibitor concentration to determine the inhibitor concentration producing 50% inhibition (IC50).
(§3) The activity of a representative compound of this invention (i.e., Compound No. 1) was evaluated according to the procedures disclosed in Example 1. More specifically, the IC50 and Ki for Compound No. 1 were determined as set forth above. The IC50 results are provided in Table 2, as run against Cbz-ValAlaAsp-H as a reference control.

[2] = target: T2, Csp-7 (Homo sapiens, UniProt P55210); experiment: Fluorescence enzyme assay, IC50 determination; assay type: biochemical; details: 30 minutes preincubation at room temperature, AMC substrate
T2 sequence (P55210 24-198 limits assumed): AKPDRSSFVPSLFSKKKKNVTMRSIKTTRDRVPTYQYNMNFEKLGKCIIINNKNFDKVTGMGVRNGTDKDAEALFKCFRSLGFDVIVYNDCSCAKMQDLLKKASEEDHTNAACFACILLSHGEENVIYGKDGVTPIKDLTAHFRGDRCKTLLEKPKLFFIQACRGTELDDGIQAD
Method: as §1, §2, §3

[3] = target: T3, Csp-8 (Homo sapiens, UniProt Q14790); experiment: Fluorescence enzyme assay, IC50 determination; assay type: biochemical; details: 30 minutes preincubation at room temperature, AMC substrate
T3 sequence (Q14790 217-374 limits assumed): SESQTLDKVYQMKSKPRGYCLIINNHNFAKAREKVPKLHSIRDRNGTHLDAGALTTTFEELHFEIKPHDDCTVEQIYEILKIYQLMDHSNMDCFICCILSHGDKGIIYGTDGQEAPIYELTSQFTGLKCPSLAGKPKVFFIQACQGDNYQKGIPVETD
Method: as §1, §2, §3

[4] = target: T4, Csp-3 (Homo sapiens, UniProt P42574); experiment: Fluorescence enzyme assay, IC50 determination; assay type: biochemical; details: recombinant enzyme, 30 minutes preincubation at room temperature, AMC substrate
T4 sequence (P42574 29-175 limits assumed): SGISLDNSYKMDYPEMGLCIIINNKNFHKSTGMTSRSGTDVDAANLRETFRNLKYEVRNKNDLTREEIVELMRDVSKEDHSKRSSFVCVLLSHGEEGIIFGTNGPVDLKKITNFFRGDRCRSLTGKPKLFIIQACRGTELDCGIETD
Method: as §1, §2, §3

[5] = target: T5, Csp-1 (Homo sapiens, UniProt P29466); experiment: Fluorescence enzyme assay, IC50 determination; assay type: biochemical; details: recombinant enzyme, 30 minutes preincubation at room temperature, AMC substrate
T5 sequence (P29466 120-297 limits assumed): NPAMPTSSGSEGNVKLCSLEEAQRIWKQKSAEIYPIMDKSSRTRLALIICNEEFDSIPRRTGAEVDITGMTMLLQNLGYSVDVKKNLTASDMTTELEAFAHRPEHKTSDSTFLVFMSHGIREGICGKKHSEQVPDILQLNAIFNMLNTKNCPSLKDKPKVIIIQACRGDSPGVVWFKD
Method: as §1, §2, §3

[6] = target: T1, Csp-6; experiment: Continuous assay for dissociation constant Ki of irreversible inhibitors; assay type: biochemical; details: continuous assay for sixty minutes, reaction initiated by adding enzyme to substrate-inhibitor mixture
Excerpt: (§4) For the irreversible inhibition of a ICE/ced-3 Family Protease enzyme with a competitive irreversible inhibitor; using the model represented by the following formulas: [drawing 16] The product formation at time t may be expressed as: [formula] where E, I, EI and E-I denote the active enzyme, inhibitor, non-covalent enzyme-inhibitor complex and covalent enzyme-inhibitor adduct, respectively. The Ki value is the overall dissociation constant of the reversible binding steps, and k3 is the irreversible rate constant. The [S] and Ks values are the substrate concentration and dissociation constant of the substrate bound to the enzyme, respectively. [E]^T is the total enzyme concentration.
(§5) The equations set forth in Example I were also used determine the Ki values of inhibitor (i.e., Compound No. 1) bound to a ICE/ced-3 family protease. Thus, a continuous assay was run for sixty minutes at various concentrations of the inhibitor and the substrate. The assay was formulated essentially the same as described above for generating the data in Table 2, except that the reaction was initiated by adding the enzyme to the substrate-inhibitor mixture. The Ki values were obtained by simulating the product AMC formation as a function of time according to Equation I. The results of this second assay are set forth below in Table 3, wherein the reference compound was Cbz-ValAlaAsp-CH2F.

[7] = target: T3, Csp-8; experiment: as above; assay type: biochemical; details: continuous assay for sixty minutes, reaction initiated by adding enzyme to substrate-inhibitor mixture
Excerpt: as §4, §5

[8] = target: T4, Csp-3; experiment: as above; assay type: biochemical; details: continuous assay for sixty minutes, reaction initiated by adding enzyme to substrate-inhibitor mixture
Excerpt: as §4, §5

[9] = target: T5, Csp-1; experiment: as above; assay type: biochemical; details: continuous assay for sixty minutes, reaction initiated by adding enzyme to substrate-inhibitor mixture
Excerpt: as §4, §5

[10] = target: T6, Csp-9 (Homo sapiens, UniProt P55211); experiment: Fluorescence enzyme assay, IC50 determination; assay type: biochemical; details: 30 minutes preincubation at room temperature, AMC substrate
T6 sequence (P55211 1-315 limits assumed): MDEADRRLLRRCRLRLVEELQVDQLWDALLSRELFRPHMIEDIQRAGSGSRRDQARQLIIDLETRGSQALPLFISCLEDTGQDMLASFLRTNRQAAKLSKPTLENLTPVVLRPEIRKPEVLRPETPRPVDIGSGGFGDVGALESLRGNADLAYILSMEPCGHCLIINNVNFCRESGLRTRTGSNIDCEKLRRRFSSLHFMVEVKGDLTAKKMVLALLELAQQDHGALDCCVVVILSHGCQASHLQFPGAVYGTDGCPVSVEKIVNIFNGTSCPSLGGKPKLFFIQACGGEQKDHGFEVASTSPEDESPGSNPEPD

[11] = target: T7, Csp-6 (UniProt P55212 24-179; P55212 194-293, limits assumed); experiment: continuous fluorogenic enzyme assay, 60 min, fit of AMC product formation to irreversible competitive inhibition model
T7 sequence (looked up) 1: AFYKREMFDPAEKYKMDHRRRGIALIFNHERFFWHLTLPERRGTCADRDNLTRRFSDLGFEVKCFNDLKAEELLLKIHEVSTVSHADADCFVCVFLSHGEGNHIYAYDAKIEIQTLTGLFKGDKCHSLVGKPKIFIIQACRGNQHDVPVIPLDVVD
T7 sequence (looked up) 2: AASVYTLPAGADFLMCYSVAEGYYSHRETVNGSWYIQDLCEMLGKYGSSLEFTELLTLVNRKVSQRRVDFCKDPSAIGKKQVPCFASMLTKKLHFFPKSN

[12] = target: T8, Csp-1 (UniProt P29466 120-297; P29466 317-404, limits assumed); experiment: as above
T8 sequence (looked up) 1: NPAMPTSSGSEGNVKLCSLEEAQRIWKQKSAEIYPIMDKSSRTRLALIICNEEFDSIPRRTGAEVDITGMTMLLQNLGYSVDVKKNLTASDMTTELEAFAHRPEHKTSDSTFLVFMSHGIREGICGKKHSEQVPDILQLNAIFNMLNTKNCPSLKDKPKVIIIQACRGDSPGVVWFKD
T8 sequence (looked up) 2: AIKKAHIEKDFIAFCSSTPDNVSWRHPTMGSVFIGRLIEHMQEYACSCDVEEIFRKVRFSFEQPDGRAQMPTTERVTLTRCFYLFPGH

[13] = target: T9, Csp-3 (UniProt P42574 29-277, limits assumed); experiment: as above
T9 sequence (looked up): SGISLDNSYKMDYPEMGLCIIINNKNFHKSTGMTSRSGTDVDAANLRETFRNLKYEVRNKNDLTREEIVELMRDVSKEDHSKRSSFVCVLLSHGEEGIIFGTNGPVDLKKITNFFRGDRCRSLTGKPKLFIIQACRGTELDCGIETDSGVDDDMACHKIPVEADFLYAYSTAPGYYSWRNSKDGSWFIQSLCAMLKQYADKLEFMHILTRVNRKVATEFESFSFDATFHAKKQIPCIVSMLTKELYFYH

[14] = target: T10, Csp-8 (UniProt Q14790 217-374; Q14790 385-479, limits assumed); experiment: as above
T10 sequence (Q14790 217-374 limits assumed, form in doubt, chain 1 of 2): as the sequence (Q14790 217-374 limits assumed) above
T10 sequence (Q14790 385-479 limits assumed, form in doubt, chain 2 of 2): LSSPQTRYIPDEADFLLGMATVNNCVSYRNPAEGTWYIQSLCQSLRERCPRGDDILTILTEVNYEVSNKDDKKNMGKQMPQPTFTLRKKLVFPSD

[15] = target: T7, Csp-6; experiment: cell-based or functional assay
[16] = target: T8, Csp-1; experiment: cell-based or functional assay
[17] = target: T11, Csp-9 (UniProt P55211 1-416, limits assumed); experiment: cell-based or functional assay
T11 sequence (looked up): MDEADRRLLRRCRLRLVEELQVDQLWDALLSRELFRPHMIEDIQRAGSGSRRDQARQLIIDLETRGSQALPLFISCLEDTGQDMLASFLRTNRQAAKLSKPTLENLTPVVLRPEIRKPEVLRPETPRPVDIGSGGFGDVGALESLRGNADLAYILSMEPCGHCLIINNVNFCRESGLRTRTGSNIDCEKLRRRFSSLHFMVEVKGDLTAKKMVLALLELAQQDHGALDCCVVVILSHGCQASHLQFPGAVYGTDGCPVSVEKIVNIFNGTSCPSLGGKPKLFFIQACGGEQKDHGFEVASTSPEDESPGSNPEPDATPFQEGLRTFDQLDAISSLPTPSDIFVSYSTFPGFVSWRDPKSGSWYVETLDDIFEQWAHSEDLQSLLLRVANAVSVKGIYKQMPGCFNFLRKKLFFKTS

[18] = target: T9, Csp-3; experiment: cell-based or functional assay
[19] = target: T12, Csp-7 (UniProt P55210 24-303, limits assumed); experiment: cell-based or functional assay
T12 sequence (looked up): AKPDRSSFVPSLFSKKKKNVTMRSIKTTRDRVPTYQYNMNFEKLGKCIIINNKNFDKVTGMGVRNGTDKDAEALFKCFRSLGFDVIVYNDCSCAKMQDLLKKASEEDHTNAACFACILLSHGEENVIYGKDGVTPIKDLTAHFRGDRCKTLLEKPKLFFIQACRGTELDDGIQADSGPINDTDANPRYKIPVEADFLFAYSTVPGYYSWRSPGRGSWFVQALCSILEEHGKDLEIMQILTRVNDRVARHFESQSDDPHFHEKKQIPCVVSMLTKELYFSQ

[20] = target: T10, Csp-8; experiment: cell-based or functional assay

In the case of `CC(C)C(NC(=O)COc1cccc2ccccc12)C(=O)NC(CC(=O)NS(C)(=O)=O)C(=O)COc1c(F)c(F)cc(F)c1F` (centres unmarked) [Compound 1], the IC50 [1] is reported as 2 nM, the IC50 [2] is reported as 4 nM and the IC50 [3] is reported as 6 nM. For the same molecule, the IC50 [4] was 2 nM, the IC50 [5] was 4 nM and the Ki [6] was 400 nM. The Ki [7] was 600 nM, the Ki [8] was 80 nM and the Ki [9] was 200 nM. For the same molecule, the IC50 [10] was 5 nM.

Cbz-Val-Ala-Asp-CH2F was tested, and the Ki [11] was 594 nM, the Ki [12] was 15 nM and the Ki [13] was 820 nM. It also gave a Ki [14] of 18 nM.

In the case of Cbz-Val-Ala-Asp-{aldehyde′} [Cbz-ValAlaAsp-H], the “IC50 (µM), inhibition of enzyme activity, fluorogenic substrate” value (from here on “IC50 (µM), inhibition of enzyme activity”) [15] is reported as greater than 10 µM, the “IC50 (µM), inhibition of enzyme activity” value [16] is reported as 0.064 µM and the “IC50 (µM), inhibition of enzyme activity” value [17] is reported as 0.87 µM. The “IC50 (µM), inhibition of enzyme activity” value [18] was 47 µM, the “IC50 (µM), inhibition of enzyme activity” value [19] was greater than 10 µM and the “IC50 (µM), inhibition of enzyme activity” value [20] was 2.96 µM.
